Tested on: adult participants hospitalized for severe COVID-19
Assay: Phase 1b severe COVID-19 study: clinical laboratory abnormalities (PCSA)
Format: in vivo, human
Details: TEAE period
Experimental: Standard clinical laboratory parameters (hematology, blood chemistry) were measured per protocol.
For laboratory parameters (hematology, clinical chemistry, and urinalysis), vital signs, and ECG, incidences of potentially clinically significant abnormality (PCSA) values, actual values and change from baseline were summarized by treatment group.
For all laboratory, vital signs and ECG parameters, raw data and change from baseline were summarized in descriptive statistics by treatment group and scheduled time of measurement, with the exception of AST, ALT and alkaline phosphatase: instead of summarizing data in descriptive statistics, participants' profiles were presented through graphics by treatment group and with a color code to identify sites. The reason was that blood samples were processed by local laboratories with different normal ranges. For the rest of clinical laboratory these parameters it is reasonable to pool data as they are standard procedure and no significant differences in normal ranges were expected.

[1] = abnormal baseline (LLN/ULN or PCSA), 600 mg (N = 47), safety population
[2] = all baseline values counted in one unique group (as normal), 600 mg (N = 47), safety population
[3] = missing baseline, 600 mg (N = 47), safety population
[4] = normal baseline, 600 mg (N = 47), safety population

`CN1C(=O)[C@@H](NC(=O)c2nnc(Cc3ccccc3)[nH]2)COc2cccnc21` [RIPK1 Inhibitor, (S)-5-benzyl-N-(5-methyl-4-oxo-2,3,4,5-tetrahydropyrido[3,2-b][1,4]oxazepin-3-yl)-4H-1,2,4-triazole-3-carboxamide] was tested, and the “participants with ALT>3 ULN” value (600 mg) was 9 participants, the “participants with ALT>5 ULN” value (600 mg) was 1 participants and the “participants with AST>5 ULN” value (600 mg) was 1 participants. For the same molecule, the “participants with PCSAs of AST>3 ULN” value (600 mg) was 2 participants, the “participants with alkaline phosphatase>1.5 ULN” value (600 mg) was 2 participants and the “participants with total bilirubin>1.5 ULN” value (600 mg) was “One”. The “PCSA Alanine Aminotransferase (ALT) >3 ULN” value [1] was 7/20, the “PCSA Alanine Aminotransferase (ALT) >5 ULN” value [1] was 0/20 and the “PCSA Alanine Aminotransferase (ALT) >10 ULN” value [1] was 0/20. The “PCSA Alanine Aminotransferase (ALT) >20 ULN” value [1] was 0/20, the “PCSA Albumin ≤25 g/L” value [1] was 0/28 and the “PCSA Alkaline Phosphatase >1.5 ULN” value [1] was 0/0. The “PCSA Aspartate Aminotransferase (AST) >3 ULN” value [1] was 1/24, the “PCSA Aspartate Aminotransferase (AST) >5 ULN” value [1] was 0/24 and the “PCSA Aspartate Aminotransferase (AST) >10 ULN” value [1] was 0/24. The “PCSA Basophils >0.1 * 10^9/L” value [1] was 0/0, the “PCSA C-Reactive Protein >2 ULN or >10 mg/L (if ULN not provided)” value [1] was 42/46 and the “PCSA Conjugated bilirubin >35% Bilirubin and Bilirubin >1.5 ULN” value [1] was 0/0. The “PCSA Creatinine Clearance (CG) <15 mL/min (end stage renal disease)” value [1] was 0/18, the “PCSA Creatinine Clearance (CG) ≥15-<30 mL/min (severe decrease in GFR)” value [1] was 0/18 and the “PCSA Creatinine Clearance (CG) ≥30-<60 mL/min (moderate decrease in GFR)” value [1] was 4/18. For the same molecule, the “PCSA Creatinine Clearance (CG) ≥60-<90 mL/min (mild decrease in GFR)” value [1] was 11/18, the “PCSA Creatinine ≥150 μmol/L (Adults)” value [1] was 1/8 and the “PCSA Eosinophils >0.5 * 10^9/L or >ULN (if ULN ≥ 0.5 * 10^9/L)” value [1] was 0/9. The “PCSA Erythrocyte Count (RBC) ≥6 * 10^12/L” value [1] was 1/17, the “PCSA Glucose ≤3.9 mmol/L and <LLN” value [1] was 1/33 and the “PCSA Glucose ≥11.1 mmol/L (unfasted); ≥7 mmol/L (fasted)” value (from here on “PCSA Glucose ≥11.1 mmol/L (unfasted)”) [1] was 18/33. The “PCSA Hematocrit ≤0.37 v/v (Male); ≤0.32 v/v (Female)” value [1] was 11/17, the “PCSA Hematocrit ≥0.55 v/v (Male); ≥0.5 v/v (Female)” value [1] was 0/17 and the “PCSA Hemoglobin ≤115 g/L (Male); ≤95 g/L (Female)” value [1] was 4/18. For the same molecule, the “PCSA Hemoglobin ≥185 g/L (Male); ≥165 g/L (Female)” value [1] was 0/18, the “PCSA Lymphocytes >4 * 10^9/L” value [1] was 2/11 and the “PCSA Monocytes >0.7 * 10^9/L” value [1] was 6/10. For the same molecule, the “PCSA Neutrophils <1.5 * 10^9/L (Non-Black); <1 * 10^9/L (Black)” value [1] was 0/8, the “PCSA Platelet Count <100 * 10^9/L” value [1] was 1/11 and the “PCSA Platelet Count ≥700 * 10^9/L” value [1] was 1/11. The “PCSA Potassium <3 mmol/L” value [1] was 0/7, the “PCSA Potassium ≥5.5 mmol/L” value [1] was 1/7 and the “PCSA Sodium ≤129 mmol/L” value [1] was 0/8. For the same molecule, the “PCSA Sodium ≥160 mmol/L” value [1] was 0/8, the “PCSA Total Bilirubin >1.5 ULN” value [1] was 0/2 and the “PCSA Total Bilirubin >2 ULN” value [1] was 0/2. The “PCSA White blood cell count <3 * 10^9/L (Non-Black); <2 * 10^9/L (Black)” value [1] was 0/10, the “PCSA White blood cell count ≥16 * 10^9/L” value [1] was 1/10 and the “PCSA Creatinine ≥30% change from baseline” value [2] was 3/47. The “PCSA Creatinine ≥100% change from baseline” value [2] was 0/47, the “PCSA Hemoglobin Decrease from baseline ≥20 g/L” value [2] was 4/47 and the “PCSA Alanine Aminotransferase (ALT) >3 ULN” value [3] was 0/0. The “PCSA Alanine Aminotransferase (ALT) >5 ULN” value [3] was 0/0, the “PCSA Alanine Aminotransferase (ALT) >10 ULN” value [3] was 0/0 and the “PCSA Alanine Aminotransferase (ALT) >20 ULN” value [3] was 0/0. For the same molecule, the “PCSA Albumin ≤25 g/L” value [3] was 0/0, the “PCSA Alkaline Phosphatase >1.5 ULN” value [3] was 0/0 and the “PCSA Aspartate Aminotransferase (AST) >3 ULN” value [3] was 0/0. For the same molecule, the “PCSA Aspartate Aminotransferase (AST) >5 ULN” value [3] was 0/0, the “PCSA Aspartate Aminotransferase (AST) >10 ULN” value [3] was 0/0 and the “PCSA C-Reactive Protein >2 ULN or >10 mg/L (if ULN not provided)” value [3] was 0/0. The “PCSA Conjugated bilirubin >35% Bilirubin and Bilirubin >1.5 ULN” value [3] was 0/1, the “PCSA Glucose ≤3.9 mmol/L and <LLN” value [3] was 0/3 and the “PCSA Glucose ≥11.1 mmol/L (unfasted)” value [3] was 3/3. For the same molecule, the “PCSA Total Bilirubin >1.5 ULN” value [3] was 0/0, the “PCSA Total Bilirubin >2 ULN” value [3] was 0/0 and the “PCSA Alanine Aminotransferase (ALT) >3 ULN” value [4] was 2/27. The “PCSA Alanine Aminotransferase (ALT) >5 ULN” value [4] was 1/27, the “PCSA Alanine Aminotransferase (ALT) >10 ULN” value [4] was 0/27 and the “PCSA Alanine Aminotransferase (ALT) >20 ULN” value [4] was 0/27. The “PCSA Albumin ≤25 g/L” value [4] was 0/18, the “PCSA Alkaline Phosphatase >1.5 ULN” value [4] was 2/46 and the “PCSA Aspartate Aminotransferase (AST) >3 ULN” value [4] was 1/23. For the same molecule, the “PCSA Aspartate Aminotransferase (AST) >5 ULN” value [4] was 1/23, the “PCSA Aspartate Aminotransferase (AST) >10 ULN” value [4] was 0/23 and the “PCSA Basophils >0.1 * 10^9/L” value [4] was 3/29. The “PCSA C-Reactive Protein >2 ULN or >10 mg/L (if ULN not provided)” value [4] was 0/1, the “PCSA Conjugated bilirubin >35% Bilirubin and Bilirubin >1.5 ULN” value [4] was 0/46 and the “PCSA Creatinine Clearance (CG) <15 mL/min (end stage renal disease)” value [4] was 0/29. For the same molecule, the “PCSA Creatinine Clearance (CG) ≥15-<30 mL/min (severe decrease in GFR)” value [4] was 0/29, the “PCSA Creatinine Clearance (CG) ≥30-<60 mL/min (moderate decrease in GFR)” value [4] was 0/29 and the “PCSA Creatinine Clearance (CG) ≥60-<90 mL/min (mild decrease in GFR)” value [4] was 5/29. The “PCSA Creatinine ≥150 μmol/L (Adults)” value [4] was 0/39, the “PCSA Eosinophils >0.5 * 10^9/L or >ULN (if ULN ≥ 0.5 * 10^9/L)” value [4] was 1/20 and the “PCSA Erythrocyte Count (RBC) ≥6 * 10^12/L” value [4] was 0/30. For the same molecule, the “PCSA Glucose ≤3.9 mmol/L and <LLN” value [4] was 1/10, the “PCSA Glucose ≥11.1 mmol/L (unfasted)” value [4] was 5/10 and the “PCSA Hematocrit ≤0.37 v/v (Male); ≤0.32 v/v (Female)” value [4] was 4/30. For the same molecule, the “PCSA Hematocrit ≥0.55 v/v (Male); ≥0.5 v/v (Female)” value [4] was 0/30, the “PCSA Hemoglobin ≤115 g/L (Male); ≤95 g/L (Female)” value [4] was 1/29 and the “PCSA Hemoglobin ≥185 g/L (Male); ≥165 g/L (Female)” value [4] was 0/29. For the same molecule, the “PCSA Lymphocytes >4 * 10^9/L” value [4] was 3/18, the “PCSA Monocytes >0.7 * 10^9/L” value [4] was 12/19 and the “PCSA Neutrophils <1.5 * 10^9/L (Non-Black); <1 * 10^9/L (Black)” value [4] was 2/21. The “PCSA Platelet Count <100 * 10^9/L” value [4] was 0/36, the “PCSA Platelet Count ≥700 * 10^9/L” value [4] was 0/36 and the “PCSA Potassium <3 mmol/L” value [4] was 0/40. For the same molecule, the “PCSA Potassium ≥5.5 mmol/L” value [4] was 4/40, the “PCSA Sodium ≤129 mmol/L” value [4] was 1/39 and the “PCSA Sodium ≥160 mmol/L” value [4] was 0/39. For the same molecule, the “PCSA Total Bilirubin >1.5 ULN” value [4] was 1/45, the “PCSA Total Bilirubin >2 ULN” value [4] was 0/45 and the “PCSA White blood cell count <3 * 10^9/L (Non-Black); <2 * 10^9/L (Black)” value [4] was 1/37. The “PCSA White blood cell count ≥16 * 10^9/L” value [4] was 2/37.
